The results in this text go back to patent publication US20210115018A1, “PIPERIDINE COMPOUNDS AS COVALENT MENIN INHIBITORS” (THE REGENTS OF THE UNIVERSITY OF MICHIGAN, priority 2018, published 2021).

Usually IC50 stands for the concentration that gives 50% inhibition.

A value given as a limit tells only on which side of the number the result lay.

Experiment [1] has as its target T1, menin protein (Homo sapiens, UniProt O00255).
T1 sequence (O00255 1-610): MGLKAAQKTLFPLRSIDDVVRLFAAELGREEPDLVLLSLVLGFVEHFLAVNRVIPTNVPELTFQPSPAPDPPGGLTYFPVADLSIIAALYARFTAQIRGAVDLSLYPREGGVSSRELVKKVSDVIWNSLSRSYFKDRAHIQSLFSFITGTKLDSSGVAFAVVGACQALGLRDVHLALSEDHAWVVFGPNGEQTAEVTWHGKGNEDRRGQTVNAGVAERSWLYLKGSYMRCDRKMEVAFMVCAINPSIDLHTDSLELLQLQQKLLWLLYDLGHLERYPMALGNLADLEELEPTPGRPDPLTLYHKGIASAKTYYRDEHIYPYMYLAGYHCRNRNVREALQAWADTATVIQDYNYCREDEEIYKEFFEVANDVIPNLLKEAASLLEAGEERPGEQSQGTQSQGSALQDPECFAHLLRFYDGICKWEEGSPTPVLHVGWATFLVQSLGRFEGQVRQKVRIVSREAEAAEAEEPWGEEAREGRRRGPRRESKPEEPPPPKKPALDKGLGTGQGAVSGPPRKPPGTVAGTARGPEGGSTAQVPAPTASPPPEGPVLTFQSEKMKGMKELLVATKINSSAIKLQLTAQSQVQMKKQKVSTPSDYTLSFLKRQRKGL
Nature of the experiment: Fluorescence polarization (FP) competitive binding assay, menin binding affinity. As to conditions: FP competition with FAM-MM2 probe 2 nM, menin 4 nM, 30 minutes room temperature. The method, boiled down: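 Competitive FP with FAM-labeled MLL1 peptide probe FAM-MM2 (2 nM) and menin (4 nM) in PBS, 0.02% bovine γ-globulin, 4% DMSO, 0.01% Triton X-100. After 30 min at room temperature, mP read at 485/530 nm; IC50 from nonlinear regression against probe-only and complex-only controls.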
For orientation: Fluorescence polarisation rises when a labelled molecule tumbles more slowly, as on binding a larger partner.

In experiment [2] the test system is MOLM13. Nature of the experiment: 7-day proliferation assay (WST-8), cell growth inhibition. As to conditions: Homo sapiens, MOLM-13, 168 h, MOLM13 cells, 7 days. It counts as cell-based. The method, boiled down: (§1)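 Cells seeded at 2,000-3,000/well were exposed to serially diluted compound for 7 days at 37° C., 5% CO2. Viability was read by WST-8 absorbance at 450 nm after 1-2 h color development; readings normalized to DMSO-treated cells, IC50 by four-parameter nonlinear regression.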

Experiment [3] concerns MV4-11. Described as above. It counts as cell-based. As to conditions: Homo sapiens, MV4-11, 168 h, MV4-11 cells, 7 days. The method in brief: as §1

`COC(=O)N[C@H]1CCC[C@@H]1[C@](CN(C)C)(c1cccc(F)c1)C1CCN(CC2CN(c3ccc(S(=O)(=O)C4CN(C(=O)/C=C/CN(C)C)C4)cc3)C2)CC1` [Cpd. No. 2, methyl ((1S,2R)-2-((S)-2-(dimethylamino)-1-(1-((1-(4-((1-((E)-4-(dimethylamino)but-2-enoyl)azetidin-3-yl)sulfonyl)phenyl)azetidin-3-yl)methyl)piperidin-4-yl)-1-(3-fluorophenyl)ethyl)cyclopentyl)carbamate]: the IC50 in experiment [1] was 5 nM; in experiment [2], below 10 nM; in experiment [3] it was below 10 nM.

Consider `COC(=O)N[C@H]1CCC[C@@H]1[C@](CN1CCCC1)(c1cccc(F)c1)C1CCN(CC2CN(c3ccc(S(=O)(=O)C4CN(C(=O)/C=C/CN(C)C)C4)cc3)C2)CC1` [Cpd. No. 3], for which the IC50 is 2 nM in experiment [1], below 50 nM in experiment [2] and below 50 nM in experiment [3].

On to `COC(=O)N[C@H]1CCC[C@@H]1[C@](CN1CCC1)(c1cccc(F)c1)C1CCN(CC2CN(c3ccc(S(=O)(=O)C4CN(C(=O)/C=C/CN(C)C)C4)cc3)C2)CC1` [Cpd. No. 5, methyl ((1S,2R)-2-((S)-2-(azetidin-1-yl)-1-(1-((1-(4-((1-((E)-4-(dimethylamino)but-2-enoyl)azetidin-3-yl)sulfonyl)phenyl)azetidin-3-yl)methyl)piperidin-4-yl)-1-(3-fluorophenyl)ethyl)cyclopentyl)carbamate], for which the values for the IC50 in experiment [1], in experiment [2] and in experiment [3] were 3 nM, below 50 nM and below 10 nM, respectively.

As to `COC(=O)N[C@H]1CCC[C@@H]1[C@](CN1CCC1)(c1cccc(F)c1)C1CCN(CC2(F)CN(c3ccc(S(=O)(=O)C4CN(C(=O)/C=C/CN(C)C)C4)cc3)C2)CC1` [Cpd. No. 7, methyl ((1S,2R)-2-((S)-2-(azetidin-1-yl)-1-(1-((1-(4-((1-((E)-4-(dimethylamino)but-2-enoyl)azetidin-3-yl)sulfonyl)phenyl)-3-fluoroazetidin-3-yl)methyl)piperidin-4-yl)-1-(3-fluorophenyl)ethyl)cyclopentyl)carbamate], the IC50 in experiment [1] is 2 nM; in experiment [2], below 100 nM; in experiment [3], below 10 nM.

As to `C=C(CN1CCOCC1)C(=O)N1CC(S(=O)(=O)c2ccc(N3CC(F)(CN4CCC([C@@](CN5CCC5)(c5cccc(F)c5)[C@H]5CCC[C@@H]5NC(=O)OC)CC4)C3)cc2)C1` [Cpd. No. 12, methyl ((1S,2R)-2-((S)-2-(azetidin-1-yl)-1-(1-((3-fluoro-1-(4-((1-(2-(morpholinomethyl)acryloyl)azetidin-3-yl)sulfonyl)phenyl)azetidin-3-yl)methyl)piperidin-4-yl)-1-(3-fluorophenyl)ethyl)cyclopentyl)carbamate], the IC50 was 2 nM in experiment [1], below 100 nM in experiment [2] and below 10 nM in experiment [3].

Regarding `C=C(CN(C)C)C(=O)N1CC(S(=O)(=O)c2ccc(N3CC(F)(CN4CCC([C@@](CN5CCC5)(c5cccc(F)c5)[C@H]5CCC[C@@H]5NC(=O)OC)CC4)C3)cc2)C1` [Cpd. No. 13, methyl ((1S,2R)-2-((S)-2-(azetidin-1-yl)-1-(1-((1-(4-((1-(2-((dimethylamino)methyl)acryloyl)azetidin-3-yl)sulfonyl)phenyl)-3-fluoroazetidin-3-yl)methyl)piperidin-4-yl)-1-(3-fluorophenyl)ethyl)cyclopentyl)carbamate], the IC50 in experiment [1] was 1 nM; in experiment [2], below 100 nM; in experiment [3], below 10 nM.

`C=C(CN1CCCCC1)C(=O)N1CC(S(=O)(=O)c2ccc(N3CC(CN4CCC([C@@](CN5CCC5)(c5cccc(F)c5)[C@H]5CCC[C@@H]5NC(=O)OC)CC4)C3)cc2)C1` [Cpd. No. 17, methyl ((1S,2R)-2-((S)-2-(azetidin-1-yl)-1-(3-fluorophenyl)-1-(1-((1-(4-((1-(2-(piperidin-1-ylmethyl)acryloyl)azetidin-3-yl)sulfonyl)phenyl)azetidin-3-yl)methyl)piperidin-4-yl)ethyl)cyclopentyl)carbamate]: the IC50 in experiment [1] was 2 nM; in experiment [2], below 100 nM; in experiment [3] it was below 10 nM.

For `C=C(CN1CCCCC1)C(=O)N1CC(S(=O)(=O)c2ccc(N3CC(F)(CN4CCC([C@@](CN5CCC5)(c5cccc(F)c5)[C@H]5CCC[C@@H]5NC(=O)OC)CC4)C3)cc2)C1` [Cpd. No. 18, methyl ((1S,2R)-2-((S)-2-(azetidin-1-yl)-1-(1-((3-fluoro-1-(4-((1-(2-(piperidin-1-ylmethyl)acryloyl)azetidin-3-yl)sulfonyl)phenyl)azetidin-3-yl)methyl)piperidin-4-yl)-1-(3-fluorophenyl)ethyl)cyclopentyl)carbamate], the IC50 was 2 nM in experiment [1], below 100 nM in experiment [2] and below 10 nM in experiment [3].

For the molecule `C=C(CN1CCCC1)C(=O)N1CC(S(=O)(=O)c2ccc(N3CC(CN4CCC([C@@](CN5CCC5)(c5cccc(F)c5)[C@H]5CCC[C@@H]5NC(=O)OC)CC4)C3)cc2)C1` [Cpd. No. 19, methyl ((1S,2R)-2-((S)-2-(azetidin-1-yl)-1-(3-fluorophenyl)-1-(1-((1-(4-((1-(2-(pyrrolidin-1-ylmethyl)acryloyl)azetidin-3-yl)sulfonyl)phenyl)azetidin-3-yl)methyl)piperidin-4-yl)ethyl)cyclopentyl)carbamate], the IC50 was 1 nM in experiment [1], below 100 nM in experiment [2] and below 10 nM in experiment [3].

`COC(=O)N[C@H]1CCC[C@@H]1[C@](CN1CCC1)(c1cccc(F)c1)C1CCN(CC2CN(c3ccc(S(=O)(=O)C4CN(C(=O)/C=C/CN5CCCC5)C4)cc3)C2)CC1` [Cpd. No. 20, methyl ((1S,2R)-2-((S)-2-(azetidin-1-yl)-1-(3-fluorophenyl)-1-(1-((1-(4-((1-((E)-4-(pyrrolidin-1-yl)but-2-enoyl)azetidin-3-yl)sulfonyl)phenyl)azetidin-3-yl)methyl)piperidin-4-yl)ethyl)cyclopentyl)carbamate]: the figures for the IC50 in experiment [1], in experiment [2] and in experiment [3] were 2 nM, below 100 nM and below 10 nM, respectively.

Take `COC(=O)N[C@H]1CCC[C@@H]1[C@](CN1CCC1)(c1cccc(F)c1)C1CCN(CC2CN(c3ccc(S(=O)(=O)C4CN(C(=O)/C=C/CN5CCCCC5)C4)cc3)C2)CC1` [Cpd. No. 24, methyl ((1S,2R)-2-((S)-2-(azetidin-1-yl)-1-(3-fluorophenyl)-1-(1-((1-(4-((1-((E)-4-(piperidin-1-yl)but-2-enoyl)azetidin-3-yl)sulfonyl)phenyl)azetidin-3-yl)methyl)piperidin-4-yl)ethyl)cyclopentyl)carbamate]: the half-inhibitory concentration (IC50) is 3 nM in experiment [1], below 10 nM in experiment [2] and below 10 nM in experiment [3].

For the molecule `COC(=O)N[C@H]1CCC[C@@H]1[C@](CN1CCC1)(c1cccc(F)c1)C1CCN(CC2CN(c3ccc(S(=O)(=O)C4CN(C(=O)/C=C/CN5CC(F)C5)C4)cc3)C2)CC1` [Cpd. No. 174], the values for the IC50 in experiment [1], in experiment [2] and in experiment [3] were 2 nM, below 10 nM and below 10 nM, respectively.

In the case of `COC(=O)N[C@H]1CCC[C@@H]1[C@](CN1CCC1)(c1cccc(F)c1)C1CCN(CC2CN(c3ccc(S(=O)(=O)C4CN(C(=O)/C=C/CN5CC(F)(F)C5)C4)cc3)C2)CC1` [Cpd. No. 175], the values for the IC50 in experiment [1], in experiment [2] and in experiment [3] were 1 nM, below 10 nM and below 10 nM, respectively.

In the case of `C=CC(=O)Nc1cccc(S(=O)(=O)c2ccc(N3CC(F)(CN4CCC([C@@](CN5CCC5)(c5cccc(F)c5)[C@H]5CCC[C@@H]5NC(=O)OC)CC4)C3)c(F)c2)c1` [compound 80], the IC50 in experiment [1] is 2 nM; in experiment [2], below 50 nM; in experiment [3], below 50 nM.

Regarding `C=CC(=O)N1CCC[C@@H](S(=O)(=O)c2ccc(N3CC(CN4CCC([C@@](CN5CCC5)(c5cccc(F)c5)[C@H]5CCC[C@@H]5NC(=O)OC)CC4)C3)cc2CN2CC(F)C2)C1` [compound 208], the IC50 in experiment [2] and in experiment [3] was below 50 nM in each case.

For the molecule `C=CC(=O)N1CCC[C@@H](S(=O)(=O)c2ccc(N3CC(CN4CCC([C@@](CN5CCC5)(c5cccc(F)c5)[C@H]5CCC[C@@H]5NC(=O)OC)CC4)(OC)C3)cc2)C1` [compound 212], the IC50 in experiment [2] was below 100 nM; in experiment [3], below 50 nM.

As to `C=CC(=O)N1CCOC[C@H](S(=O)(=O)c2ccc(N3CC(C)(CN4CCC([C@@](CN5CCC5)(c5cccc(F)c5)[C@H]5CCC[C@@H]5NC(=O)OC)CC4)C3)cc2)C1` [compound 213], the IC50 in experiment [2] was below 100 nM; in experiment [3] it was below 50 nM.

As for `C=CC(=O)N1CCOC[C@@H](S(=O)(=O)c2ccc(N3CC(C)(CN4CCC([C@@](CN5CCC5)(c5cccc(F)c5)[C@H]5CCC[C@@H]5NC(=O)OC)CC4)C3)cc2)C1` [compound 214], the IC50 in experiment [2] and in experiment [3] was below 500 nM throughout.
